Assay results taken from US6930118B2, “3-Oxadiazol-5-yl-1-aminoalkyl-1h-indole derivatives” (Amrad Operations Pty. Ltd., priority 2001, dated 2005).
Where a name gives a salt, the structure may show the parent alone.

Key:
CB1 receptor [1] = biological target: T1, CB1 receptor (Rattus norvegicus, UniProt P20272); test: Radioligand binding assay, rat cerebellum membranes
T1 construct: the cerebellum was dissected away from the rest of the brain, weighed and homogenised; from tissue; host or cells: Sprague Dawley rat cerebellum membranes
T1 sequence (P20272 whole entry): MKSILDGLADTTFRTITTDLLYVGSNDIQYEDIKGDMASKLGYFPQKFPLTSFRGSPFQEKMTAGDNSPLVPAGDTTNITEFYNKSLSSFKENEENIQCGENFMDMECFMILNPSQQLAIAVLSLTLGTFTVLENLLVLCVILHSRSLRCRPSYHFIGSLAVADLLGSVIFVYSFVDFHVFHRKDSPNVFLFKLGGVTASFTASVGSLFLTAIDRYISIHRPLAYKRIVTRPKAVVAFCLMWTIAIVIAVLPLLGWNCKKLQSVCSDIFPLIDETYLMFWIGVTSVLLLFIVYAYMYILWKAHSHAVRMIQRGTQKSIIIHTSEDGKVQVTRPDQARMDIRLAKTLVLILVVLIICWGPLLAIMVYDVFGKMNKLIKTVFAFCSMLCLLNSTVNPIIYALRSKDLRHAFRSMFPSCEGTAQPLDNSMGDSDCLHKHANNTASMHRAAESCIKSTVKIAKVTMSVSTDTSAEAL
Experimental: (§1) The affinity of compounds at cannabinoid receptors is routinely assessed using ligand binding assays known to those skilled in the art. Radioligand binding assays were conducted using rat cerebellum or rat spleen. The cerebellum of the rat is known to express predominantly, if not exclusively, the CB1 receptor subtype (20,21). Thus, binding constants obtained from these studies are characterised by a single affinity value, as only one receptor type is labelled. […] In contrast, biphasic binding curves in the spleen characterised by two affinity constants represent the profile of compounds showing selectivity for one receptor subtype over another. In order to determine the order of selectivity, the high and low affinity values obtained for these compounds in the spleen binding assays were compared to the single affinity estimates obtained for the cerebellum (CB1) assays.
Sprague Dawley rats of either sex (200-300 g) were killed by gassing with 80% CO2 in O2 and decapitation, and the entire brain excised rapidly and placed in ice-cold Tris-HCl buffer (Tris 50 mM, MgCl2 3 mM, EGTA 0.2 mM, pH to 7.4 with HCl). On ice, the cerebellum was dissected away from the rest of the brain, weighed and homogenised (PT-DA 1205/2EC Polytron Aggregate; Kinematica, Luzernerstrasse Switzland) in 10 volumes of ice-cold Tris-HCl buffer. The homogenate was then made up to 20 volumes and centrifuged (Model J2-M1, Beckman, Fullerton, Calif., U.S.A.) at […] for 15 min at 4° C.). Subsequently, the supernatant was discarded, the pellet resuspended in 20 volumes of buffer and centrifuged as before. The resulting pellet was then resuspended in 20 volumes of buffer and assayed for protein content using the method of Bradford (Bradford, 1976) in a Novaspec II spectrophotometer (Pharmacia Biotech; with bovine serum albumin (BSA; Hömosafe BSA, c/o ‘ScimaR’ Templestowe, Australia) as the standard. The homogenate was then recentrifuged and the final pellet resuspended in Tris-HCl buffer at a protein concentration of 5 mg/ml and stored in 500 μl aliquots at −80° C. until used in the binding assay.
(§2) Ligand binding assays were performed in polypropylene tubes in a total volume of 1 ml containing Tris-HCl buffer, a final concentration of 1 mg/ml BSA, and varying concentrations of drugs. Tubes contained 30 μg of membrane protein and incubation was started by the addition of 100 μl of either 0.5 nM [^3H]SR141716A or 0.2 nM [^3H]WIN 55,212-2. Experiments were carried out in triplicate at 30° C. for 90 min with non-specific binding being defined as radioligand binding in the presence of 1 μM unlabelled WIN 55,212-2. Incubations were terminated by rapid filtration with a M-24 Cell Harvester (Brandel; Gaithersburg, Md., U.S.A.) using ice-cold Tris-HCl buffer containing 0.5 mg/ml BSA. Filters (Wattman GF/B) were soaked for 2 h prior to filtering in a solution of Tris-HCl buffer containing 3 mg/ml BSA and 0.5% w/w polyethyleneimine (PEI). Filters were left to dry thoroughly before placement into scintillation vials with 5 ml of scintillation cocktail (Ultima Gold LSC-cocktail; Packard Bioscience, Meriden, Conn., U.S.A.) being added. Vials were left to stand overnight before the radioactivity was determined using a Model 1409 DSA Liquid Scintillation counter (EG&E Wallac, Gaithersburg, Md., U.S.A.).
(§3) The resulting radioligand binding curves were analyzed by nonlinear regression using the program PRISM 3.0 (GraphPad Software, San Diego, Calif.) in order to derive ligand affinity estimates for the cannabinoid receptor(s).

CB1 receptor [2] = biological target: T2, CB1 receptor (Mus musculus, UniProt P47746); test: Mouse electrically-stimulated isolated vas deferens bioassay (MVD); type: cell-based; details: decrease of electrically evoked twitch force; for inhibition at 1 µM: read-out: CB1 (MVD) % inh at 1.0 μM
T2 construct: Mouse vasa deferentia were dissected with capsular connective tissue intact and set up in 20 ml organ baths; from tissue; host or cells: mouse (Swiss white) isolated vas deferens
T2 sequence (P47746 whole entry): as the sequence (P20272 whole entry) above, with E95D counted along it
Experimental: Functional activity of the compounds was assayed using the mouse electrically-stimulated vas deferens bioassay, a measure of CB1 receptor function (24,25). […] CB2 functionality may be investigated using assays known to those skilled in the art; for example those described in U.S. Pat. No. 6,013,648.
Swiss white mice (35-40 g) were killed by exposure to 80% CO2 in O2 and exsanguination. Mouse vasa deferentia were dissected with capsular connective tissue intact and set up in 20 ml organ baths at 37° C. in Mg^2+-free physiological salt solution. The upper (epididymal) end was attached to an isometric force transducer (Grass FTO3C) and the lower (prostatic) end tied to a fixed support between two parallel platinum field electrodes (5 mm apart, 5 mm long). The tissue was initially stretched by 0.5 g force and allowed to equilibrate 10 min. The tissues were stimulated (Grass S88 stimulator) to contract using trains of electrical field stimulation of 3 pulses (4 Hz), 0.5 ms duration, 100 V (80% maximal voltage) every 20 s for 10 min. This electrical stimulation period was applied before and after both antagonist and agonist addition. Output from the transducer amplifier was recorded on a flat bed recorder (Gould BS 272, Cleveland, Ohio, U.S.A.). All drugs were dissolved in dimethyl sulfoxide (DMSO; Sigma, St Louis, Mo., U.S.A.) and allowed to equilibrate with the tissue for 30 min before the responses to field stimulation were assessed. Drug effects were measured as the percentage decrease of the pre-drug twitch force.

CB2 receptor = biological target: T3, CB2 receptor (Rattus norvegicus, UniProt Q9QZN9); test: Radioligand binding assay, rat spleen membranes
T3 sequence (Q9QZN9 1-343 limits assumed): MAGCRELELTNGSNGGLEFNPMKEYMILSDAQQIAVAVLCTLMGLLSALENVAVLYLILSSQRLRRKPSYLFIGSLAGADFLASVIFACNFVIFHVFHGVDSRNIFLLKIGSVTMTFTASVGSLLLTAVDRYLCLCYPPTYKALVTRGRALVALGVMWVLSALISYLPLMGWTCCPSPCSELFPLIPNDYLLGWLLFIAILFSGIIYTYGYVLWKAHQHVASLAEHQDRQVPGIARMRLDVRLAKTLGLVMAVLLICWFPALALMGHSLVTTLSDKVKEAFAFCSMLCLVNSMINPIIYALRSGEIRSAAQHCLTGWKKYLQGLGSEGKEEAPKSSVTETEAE
Experimental: as §1
Sprague Dawley rats (200-300 g) were killed by gassing with 80% CO2 in O2 and decapitation and the spleen excised rapidly and placed in ice-cold Tris-HCl buffer (Tris 50 mM, MgCl2 3 mM, EGTA 0.2 mM, pH 7.4). The spleen was weighed and diced using a scalpel before homogenisation in 10 volumes of Tris-HCl buffer. The homogenate was then made up to 20 volumes and centrifuged (12,600 g, 5 min, 4° C.), the supernatant was retained and centrifuged (23,800 g, 20 min, 4° C.). The pellet was resuspended in 10 volumes of buffer and assayed for protein content using the method of Bradford (Bradford, 1976) with BSA as the standard. The homogenate was then recentrifuged and the final pellet resuspended in Tris-HCl buffer at a protein concentration of 5 mg/ml and stored in 500 μl aliquots at −80° C. until used for the binding assay.
as §2, §3

Row | Structure (SMILES) | IC50 (CB1 receptor [1]) [nM] | inhibition at 1 µM (CB1 receptor [2]) [%] | IC50 (CB2 receptor) [nM] | other results
1 | COc1ccc(Cc2noc(-c3cn(CCN4CCOCC4)c4ccccc34)n2)cc1 [Compound 6, 3-[3-(4-Methoxy-benzyl)-[1,2,4]oxadiazol-5-yl]-1-[2-(morpholin-4-yl)ethyl]-1H-indole] | 200 | 39 | 2800 | –
2 | CCOC(=O)CCn1cc(-c2nc(Cc3ccc4ccccc4c3)no2)c2ccccc21 [Compound 16, Ethyl 3-([3-(naphth-2-ylmethyl)-1,2,4-oxadiazol-5-yl]-1H-indol-1-yl)propanoate] | – | – | – | CB1 (MVD) % inh at 1.0 μM (CB1 receptor [2]): 77%
3 | c1csc(Cc2noc(-c3cn(CCN4CCOCC4)c4ccccc34)n2)c1 [Compound 4, 1-[2-(Morpholin-4-yl)ethyl]-3-(3-thien-2-ylmethyl-[1,2,4]oxadiazol-5-yl)-1H-indole] | 100 | 81 | – | –
4 | c1ccc2cc(Cc3noc(-c4cn(CCN5CCCC5)c5ccccc45)n3)ccc2c1 [Compound 12, 3-[3-(naphth-2-ylmethyl)-[1,2,4]-oxadiazol-5-yl]-1-[2-(pyrolidin-1-yl)ethyl]-1H-indole] | – | – | – | CB1 (MVD) % inh at 1.0 μM (CB1 receptor [2]): 96%
5 | Brc1ccc(Cc2noc(-c3cn(CCN4CCOCC4)c4ccccc34)n2)cc1 [Compound 7, 3-[3-(4-Bromo-benzyl)-[1,2,4]oxadiazol-5-yl]-1-[2-(morpholin-4-yl)ethyl]-1H-indole] | – | 58 | – | –
6 | c1ccc2cc(Cc3noc(-c4cn(CCN5CCOCC5)c5ccccc45)n3)ccc2c1 [Compound 13, 3-[3-(naphth-2-ylmethyl)-[1,2,4]-oxadiazol-5-yl]-1-[2-(morpholin-4-yl)ethyl]-1H-indole] | – | 54 | – | –
7 | O=C(O)CCCCn1cc(-c2nc(Cc3ccc4ccccc4c3)no2)c2ccccc21 [Compound 15, 5-([3-(Naphth-2-ylmethyl)-[1,2,4]-oxadiazole-5-yl]-1H-indol-1-yl)pentanoic acid] | – | – | – | CB1 (MVD) % inh at 1.0 μM (CB1 receptor [2]): 54%
8 | CCCCCn1cc(-c2nc(Cc3ccccc3)no2)c2ccccc21 [Compound 8, 3-(3-Benzyl-[1,2,4]oxadiazol-5-yl)-1-pentyl-1H-indole] | 6 | 100 | 400 | –
9 | c1ccc(Cc2noc(-c3cn(CCN4CCCCC4)c4ccccc34)n2)cc1 [Compound 5, 3-(3-Benzyl-[1,2,4]oxadiazol-5-yl)-1-[2-(piperidin-1-yl)ethyl]-1H-indole] | – | 46 | – | –
10 | c1ccc(Cc2noc(-c3cn(CCN4CCOCC4)c4ccccc34)n2)cc1 [Compound 2, 3-(3-Benzyl-[1,2,4]-oxadiazol-5-yl)-1-[2-(morpholin-4-yl)ethyl]-1H-indole] | 1000 | 96 | 1000 | –
11 | Cc1c(C(=O)c2cccc3ccccc23)c2cccc3c2n1[C@@H](CN1CCOCC1)CO3 [WIN-55212, WIN-55212-2, reference compound] | – | 100 | – | –
12 | c1ccc(-c2noc(-c3cn(CCN4CCOCC4)c4ccccc34)n2)cc1 [Compound 3, 3-(3-Phenyl-[1,2,4]-oxadiazol-5-yl)-1-[2-(morpholin-4-yl)ethyl]-1H-indole] | 1000 | 83 | 1000 | melting point: 144 to 146 °C
13 | c1ccc(CCc2noc(-c3cn(CCN4CCOCC4)c4ccccc34)n2)cc1 [Compound 9, 1-[2-(morpholin-4-yl)ethyl]-3-(3-phenethyl-[1,2,4]oxadiazol-5-yl)-1H-indole] | – | 90 | 1200 | –
14 | Clc1ccccc1Cc1noc(-c2cn(CCN3CCOCC3)c3ccccc23)n1 [Compound 10, 3-[3-(2-Chlorobenzyl)-[1,2,4]-oxadiazol-5-yl]-1-[2-(morpholin-4-yl)ethyl]-1H-indole] | – | 95 | – | –
15 | c1ccc(-c2ccc(-c3noc(-c4cn(CCN5CCOCC5)c5ccccc45)n3)cc2)cc1 [Compound 11, 3-[3-(Biphenyl)-[1,2,4]oxadiazole-5-yl]-1-[2-(morpholin-4-yl)ethyl]-1H-indole] | > 10000 | – | > 10000 | CB1 (MVD) % inh at 1.0 μM (CB1 receptor [2]): 11%
16 | CCOC(=O)CCCCn1cc(-c2nc(Cc3ccc4ccccc4c3)no2)c2ccccc21 [Compound 14, Ethyl 5-([3-(naphth-2-ylmethyl)-[1,2,4]-oxadiazole-5-yl]-1H-indol-1-yl)pentanoate] | – | – | – | CB1 (MVD) % inh at 1.0 μM (CB1 receptor [2]): 42%
17 | c1ccc(Cc2noc(-c3cn(CCN4CCCC4)c4ccccc34)n2)cc1 (as salt: tartrate) [Compound 1, 3-(3-Benzyl-[1,2,4]-oxadiazol-5-yl)-1-[2-(pyrrolidin-1-yl)ethyl]-1H-indole] | – | – | – | melting point: 59 to 60 °C
18 | CCCCC/C=C\C/C=C\C/C=C\C/C=C\CCCC(=O)NCCO [Anandamide, reference compound] | – | 84 | – | –
